Data taken from patent publication US9131722B2, “Composition comprising the extract of Actinidia arguta and related species for the prevention and treatment of allergic disease and non-allergic inflammatory disease” (VIROMED CO., LTD., priority 2002, dated 2015).

Tests used:
[1] = system: mice peritoneal mast cells; experiment: Inhibition of histamine release from mice peritoneal mast cells; format: cell-based; settings: Mus musculus, Mast cell, 0.5 h; anti-DNP24-BSA IgE sensitized, DNP24-BSA 20 ng/ml 30 min; extract 100 μg/ml, Cromolyn 10^−4 M
Procedure: Each mouse was anesthetized with ether, and injected with 20 ml of Tyrode buffer B (NaCl, glucose, NaHCO3, KCl, NaH2PO4) containing 0.1% gelatin into the peritoneal cavity; then the abdomen was gently massaged for about 90 seconds. The peritoneal cavity was carefully opened, and the fluid containing peritoneal cells was aspirated by pasteur pipette. The peritoneal cells were then sedimented at 150×g for 10 min. at room temperature and resuspended in Tyrode buffer B. Mast cells were separated from the major components of rat peritoneal cells as described in the literature (Yurt et al., J Exp Med., 1; 146(5), pp 1405-19, 1977). Peritoneal cells suspended in 1 ml of Tyrode buffer B were layered onto 2 ml of 0.225 g/ml metrizamide (density 1.120 g/ml) and centrifuged at room temperature for 15 min at 400×g. […] Mast cells were stimulated with 20 ng/ml of DNP24-BSA as an antigen for 30 min., and histamine released into the medium was measured by […]). Inhibition of histamine release was calculated as following empirical formula 1; Percent inhibition=100×(A-B)/(A-C) [Empirical Formula 1] • A: Stimulated level (Histamine release with IgE-stimulation). • B: Suppressed level (Histamine release with IgE-stimulation and drug treatment). • C: Basal level (Histamine release without IgE-stimulation).

[2] = system: U266B1 cell line; experiment: Inhibition of IgE production in LPS-stimulated U266B1 cell line (ELISA); format: cell-based, human; settings: 7 days
Procedure: To confirm the inhibitory effect of hardy kiwifruit extraction on IgE production, U266B1 cell (lymphoblastoma cell line) was used. U266B1 is cell line of human B cell, which produces IgE.
U266B1 cells (American Type Culture Collection, Manassas, Va.) was cultured at 37° C. under 5% CO2 circumstances in 24-well culture plate containing RPMI-1640 medium (15% FBS, 2 mM L-glutamine, 10 mM HEPES, 1 mM sodium pyruvate, 50 μg streptomycin and 100 U/ml penicillin). […] Control was treated with 2 μM dexamethasone or medium (RPMI-1640). After treatment, cells were cultured for 7 days and IgE concentration of medium was measured by ELISA kit (PharMingen; San Diego, Calif.).
Silica gel column chromatography fraction [1], [2], [3] and [4] were treated to U266B1 cell line (at 10 μg/ml).

[3] = system: Nc/Nga mouse; experiment: Nc/Nga mouse model of atopic dermatitis: scratching and serum IgE, IgG1, IgG2a; format: in vivo; settings: oral 8 weeks, extract 300 μg/mouse/day, dexamethasone 10 μg/mouse/day, 16 weeks old
Procedure: To confirm anti-allergic effect of hardy kiwifruit extract in animals, Nc/Nga mouse model that has been widely used as an animal model for human atopic dermatitis study was employed.
(§1) For experiment, 15 of Nc/Nga mice (7 weeks after birth, female) were divided into 3 groups and adapted to new circumstance for 1 week. Since 8 weeks after birth, the hardy kiwifruit extract (300 μg/mouse/day) prepared in example 1-1 as a treatment group had been orally administered and dexamethasone (10 μg/mouse/day) or drinking water (100 μg/mouse/day) as control groups had been orally administered for 8 weeks. To compare the progress of dermatitis symptom, the scratching frequency of mouse (the time spent scratching during 20 min-observation) was measured when mice is grown at the age of 12 and 14 weeks. 16 weeks old mouse was sacrificed and the quantity of IgE, IgG1 and IgG2a level in serum were measured by ELISA method. Also, to compare the production of Th1/Th2 cytokines, splenocyte was prepared by conventional method from each mouse, transferred into 24-well plate (5×10^6 cells/ml/well) and incubated with ConA (1 μg/ml) for 3 days and then the levels of IL-4, IL-5, IL-12, and Interferon-γ were measured by ELISA method.

[4] = system: splenocytes of Nc/Nga mouse; experiment: Nc/Nga mouse model: Th1/Th2 cytokine production by ConA-stimulated splenocytes; format: in vivo; settings: ConA 1 μg/ml, 3 days
Procedure: as §1, with “Since 8 weeks after birth, the hardy kiwifruit extract (300 μg/mouse/day) prepared in example 1-1 as a treatment group had been orally administered and dexamethasone (10 μg/mouse/day) or drinking water (100 μg/mouse/day) as control groups had been orally administered for 8 weeks.” left out

[5] = system: ovalbumin-sensitized mouse; experiment: Ovalbumin-sensitized mouse model: ovalbumin-specific IgE, IgG1, IgG2a, IgG2b in serum (ELISA); format: in vivo; settings: BALB/c, oral 11 days, extract 300 μg/mouse/day, dexamethasone 10 μg/mouse/day
Procedure: The ovalbumin-sensitized mouse model is commonly used as animal model of allergy. Female BALB/c mice, aged 6 weeks (Seoul national university animal experimental center) were adapted to the environment for 7 days. At the time of 7 weeks after birth, 100 μl of emulsion, mixed 25 μg of ovalbumin (chicken egg albumin, crude grade V, Sigma Co., Ltd.) with 2.25 mg of aluminum hydroxide (ImujectAlum, Pierce Co., Ltd.) was injected into mouse peritoneal cavity and 14 days after, it was injected once more for boosting.
And then 30 mice were divided into 3 groups and each group was orally administered with the hardy kiwifruit water extract of Example 1-1 (300 μg/mouse/day), dexamethasone (10 μg/mouse/day), or drinking water (100 μg/mouse/day) for 11 days, respectively. On the 25th day, mice were sacrificed and blood serum and spleen was collected therefrom.
In serum collected in Example 2-1, the serum levels of ovalbumin-specific IgE, IgG1, IgG2a and IgG2b were measured by ELISA kits (PharMingen Co., Ltd).

[6] = system: splenocytes of ovalbumin-sensitized mouse; experiment: Ovalbumin-sensitized mouse model: expression of cytokines by splenocytes re-stimulated with ovalbumin (ELISA); format: in vivo; settings: splenocytes of OVA-stimulated mouse, ovalbumin 100 μg/ml, 3 days
Procedure: The ovalbumin-sensitized mouse model is commonly used as animal model of allergy. Female BALB/c mice, aged 6 weeks (Seoul national university animal experimental center) were adapted to the environment for 7 days.
On the 25th day, mice were sacrificed and blood serum and spleen was collected therefrom.
Each prepared splenocytes was pooled and homogenized under an aseptic condition.
Splenocytes prepared as above were inoculated in 24-well plate (5×10^6 cell/ml/well), treated with 100 μg/ml of ovalbumin, and incubated at 37° C. under an atmosphere containing 5% CO2 for 3 days. After cultivation was finished, a culture solution was gathered and then the concentration of cytokines (IL-4, IL-5, IL-12 and interferon-γ) related to allergy were measured by commercial ELISA kits.

[7] = system: edema induced by arachidonic acid in the ears of mice; experiment: Edema induced by arachidonic acid in the ears of mice; format: in vivo; settings: BALB/c, p.o. 1 hour before arachidonic acid, extract 200 mg/kg, indomethacin 10 mg/kg
Procedure: 15 mice (8 week old male BALB/c) were fasted for 18 hours with free access to water and divided into 3 groups. Inflammation was induced by topical application of arachidonic acid (0.5 mg/20 μl acetone) to the right ear of each mouse. The left ear was used as a negative control and received the vehicle (20 μl acetone). The hardy kiwifruit extract (200 mg/kg in water) was administered p.o. 1 hour prior to arachidonic acid application. The positive control group received indomethacin (10 mg/kg, p.o.) 1 hour before arachidonic acid application. Inflammation was followed for 1 hour and thereafter the animals were sacrificed. A section of 6 mm diameter disc from each ear was obtained and weighed. The edema index was assessed using the increase in the weight of the treated right ear punch biopsy over that of the untreated left ear.

With O=C(O)c1cc(=O)c2c(OCC(O)COc3cccc4oc(C(=O)O)cc(=O)c34)cccc2o1 [Cromolyn] as the compound, how does the inhibition at 100 µM [1] read?
Its inhibition at 100 µM is 52 ± 13%.

What does the source list for C[C@@H]1C[C@H]2[C@@H]3CCC4=CC(=O)C=C[C@]4(C)[C@@]3(F)[C@@H](O)C[C@]2(C)[C@@]1(O)C(=O)CO [Dexamethasone, dexamethasone]?
IgE (IU/ml) ([2]; U266B1, LPS 2 μg/ml, extracts 100 μg/ml, dexamethasone 2 μM, LPS+medium 392.9, no LPS 187.8): 203.6 ± 30.9 IU/ml; IgE (IU/ml) ([2]; U266B1, LPS stimulation, fractions at 30 μg/ml, LPS+medium 212.5, no LPS 117.4): 138.9 ± 2.1 IU/ml; IgE (IU/ml) ([2]; U266B1, LPS stimulation, silica gel fractions at 10 μg/ml, LPS+medium 540.4, no LPS 379.7): 277.6 ± 12.4 IU/ml; IgG2a in serum ([3]; drinking water 177.5): 148.0 ± 14.8 pg/mL; IgG1 in serum ([3]; drinking water 242.2): 247.3 ± 10.8 pg/mL; IgE in serum ([3]; drinking water 1572.9): 130.0 ± 55.3 pg/mL; IL-4 ([4]; drinking water 151.9): 42.7 ± 19.4 pg/mL; IL-5 ([4]; drinking water 778.3): 646.5 ± 51.7 pg/mL; IL-12 ([4]; drinking water 1925.7): 201.2 ± 12.1 pg/mL; Interferon-γ ([4]; drinking water 10407.5): 10096.4 ± 192.4 pg/mL; ovalbumin-specific IgG2b in serum ([5]; normal 1.0, drinking water 1.4, the values are: IgG2b relative to normal mice): 1.2 ± 0.1; ovalbumin-specific IgG2a in serum ([5]; normal 1.0, drinking water 2.1, the values are: IgG2a relative to normal mice): 1.9 ± 0.4; ovalbumin-specific IgG1 in serum ([5]; normal 1.0, drinking water 5.1, the values are: IgG1 relative to normal mice): 3.1 ± 0.3; ovalbumin-specific IgE in serum ([5]; normal 1.0, drinking water 7.6, the values are: IgE relative to normal mice): 2 ± 0.6; IL-4 ([6]; drinking water 159.5, normal mouse 21.6): 23.2 ± 8.7 pg/mL; IL-12 ([6]; drinking water 906.2, normal mouse 1626.0): 297.7 ± 16.4 pg/mL; Interferon-γ ([6]; drinking water 1016.0, normal mouse 14.1): 470.5 ± 38.6 pg/mL; IL-5 ([6]; drinking water 2573.6, normal mouse 0.5): 884.1 ± 80.7 pg/mL

What does the source list for COc1ccc2c(c1)c(CC(=O)O)c(C)n2C(=O)c1ccc(Cl)cc1 [Indomethacin, indomethacin]?
Index of edema ([7]; control 7.2 ± 1.1): 1.3 ± 0.3 mg; inhibition at 10 mg/kg ([7]; Mus musculus, po, read-out: Inhibition rate (%)): 81.9%
